The source of these data is ChEMBL document CHEMBL3507680, “University of Dundee, Gates Library screen for HepG2 cell viability”.

This data set is described as follows: Human HepG2 cell viability assay in 384 well format. The conditions noted are these: HepG2 cells, read-out: Inhibition. Set-up: dose 125 nL, time 70.5 hour; concentration not given beside the values. In kind it is toxicity, cell-based.
Consider `Cc1nnc(N2C[C@@H]3CCCO[C@@H]3[C@H](N(C)C)C2)s1`, for which the cytotoxicity at 70.5 h was found to be 26.3%.

For `CN1CCN(C(=O)Cc2ccccn2)Cc2cccnc21`, the cytotoxicity at 70.5 h was -2.09%.

In the case of `COCC1CN(C(=O)c2ccnnc2)Cc2ncnn2C1` (stereo unspecified), the cytotoxicity at 70.5 h was -3.33%.

On to `CCN1C(=O)C2(CCOCC2)c2cc(NC(=O)c3cnccn3)ccc21`, for which the cytotoxicity at 70.5 h amounted to 1.85%.

As for `CCN1C(=O)C2(CCOCC2)c2cc(NC(=O)c3cc(C)n[nH]3)ccc21`, the cytotoxicity at 70.5 h was -3.02%.

Turning to `Cc1cc(C(=O)NCC2Cn3nnc(C)c3CO2)no1` (stereo unspecified), the cytotoxicity at 70.5 h is -7.19%.

With `Cn1cc(CN2CCc3c(COCc4ccncc4)cncc3C2)cn1`, the cytotoxicity at 70.5 h was -6.18%.

In the case of `Cc1ccc(CN2CC[C@H]3C[C@H](c4nc(C5CC5)cs4)O[C@@H]3C2)o1`, the cytotoxicity at 70.5 h was -6.11%.

As for `c1cc(CN2CC[C@H]3C[C@H](c4nc(C5CC5)cs4)O[C@@H]3C2)ccn1`, the cytotoxicity at 70.5 h was -7.31%.

Regarding `O=C(c1ccoc1)N1CCC2(C1)CN(c1ncc(F)cn1)C2`, the cytotoxicity at 70.5 h is -0.91%.

For the compound `O=C(c1ccoc1)N1CCC2(C1)CN(c1ncccn1)C2`, the cytotoxicity at 70.5 h came to 0.524%.

Turning to `CN(C)Cc1nnc2n1CCN(Cc1cccnc1)C2`, the cytotoxicity at 70.5 h is -2.36%.

`CCOCC(=O)NCC1Cn2nnc(-c3cccc(F)c3)c2CO1` (stereo unspecified): the cytotoxicity at 70.5 h is -4.09%.

`COc1ccc(CN2C[C@@H]3CN(C(=O)c4ccsc4)C[C@@H]3C2=O)cc1`: the cytotoxicity at 70.5 h was -4.99%.

With `Cc1cccc(CN2C[C@@H]3CN(C(=O)c4ccco4)C[C@@H]3C2=O)c1`, the cytotoxicity at 70.5 h was -1.41%.

In the case of `O=C(O)c1ccc2c(c1)C1(CCCCC1)CN2C(=O)c1ccnnc1`, the cytotoxicity at 70.5 h was -4.43%.

For the compound `CC(=O)N1CCOC2(CCCN(Cc3ccc(Cl)c(C(F)(F)F)c3)C2)C1` (stereo unspecified), the cytotoxicity at 70.5 h was -1.77%.

As for `Cn1cc(CN2CC3(CCN(Cc4ccsc4)C3)C2)cn1`, the cytotoxicity at 70.5 h worked out at 24.7%.

Consider `O=C(O)CN1CCC2(CCc3ccccc32)CC1`, for which the cytotoxicity at 70.5 h turned out to be 13.9%.

On to `O=C(O)c1ccc2c(c1)C1(CCCCC1)CN2C(=O)c1cccc(F)c1`, for which the cytotoxicity at 70.5 h came to 8.94%.

With `CC(=O)N1[C@H](Cn2cncn2)C[C@@H]2CN(Cc3nccs3)CC[C@@H]21`, the cytotoxicity at 70.5 h was 14.9%.

`O=C(c1cccs1)N1CC(C(=O)N2CCCC2)C2(CCOCC2)C1` (stereo unspecified): the cytotoxicity at 70.5 h worked out at 0.22%.

Consider `O=C(Nc1ccccc1)C1CN(C(=O)c2cccs2)CC12CCOCC2` (stereo unspecified), for which the cytotoxicity at 70.5 h was -0.505%.

In the case of `CC(C)NC(=O)C1CN(C(=O)c2cccs2)CC12CCOCC2` (stereo unspecified), the cytotoxicity at 70.5 h is -1.8%.

`COCCN1CCO[C@H]2[C@H](OCc3cccc(C)n3)CC[C@@H]21`: the cytotoxicity at 70.5 h was -2.63%.

On to `Cc1ccc(CN2CC[C@H]3OCC[C@@H](C(=O)NCC4CC4)[C@@H]3C2)o1`, for which the cytotoxicity at 70.5 h is -5.45%.

Turning to `CC(C)CN1CCC2(CC(C(=O)NCc3cccnc3)=NO2)C1` (stereo unspecified), the cytotoxicity at 70.5 h was -5.8%.

Take `COC[C@]12COC[C@H]1CN(Cc1cccnc1OC)C2`: the cytotoxicity at 70.5 h was -19%.

For `Cc1nc(N2CCCC2)nc2c1CCN(C(=O)CC1CC1)CC2`, the cytotoxicity at 70.5 h is -8.4%.

On to `COC[C@H]1CCC[C@]12CN(C(=O)NCc1ccccc1)CCO2`, for which the cytotoxicity at 70.5 h was -16.8%.

With `O=C(NCC1CC1)C1CN(C(=O)c2cccc(Cl)c2)CC12CCOCC2` (stereo unspecified), the cytotoxicity at 70.5 h came to 38.6%.

For `CCC1=N[C@@]2(CC[C@@H]3CN(S(=O)(=O)CC(C)C)C[C@@H]32)C(=O)N1C`, the cytotoxicity at 70.5 h is -1.14%.

As for `Cc1csc([C@@H]2C[C@@H]3CCN(C(=O)c4ccnnc4)C[C@H]3O2)n1`, the cytotoxicity at 70.5 h was -3.66%.

For `Cn1ccnc1CN1CCC2(CC1)CN(CC1CC1)C(=O)CO2`, the cytotoxicity at 70.5 h stood at 12.3%.

As for `CC(C)N(C)Cc1nnc2n1CCCN(C(=O)c1ccco1)C2`, the cytotoxicity at 70.5 h was -6.16%.

With `O=C(C1CC=CC1)N1C[C@@H]2[C@@H](C1)OCC(=O)N2Cc1cccnc1`, the cytotoxicity at 70.5 h turned out to be 0.567%.

For `Cc1ccoc1C(=O)N1CC[C@H]2OCC[C@@]2(COCc2ccncc2)C1`, the cytotoxicity at 70.5 h was -5.41%.

Consider `O=C(NCC1CC1)C1CN(C(=O)c2cccnc2)CC12CCOCC2` (stereo unspecified), for which the cytotoxicity at 70.5 h was -7.11%.

For the compound `COCC1CN(C(=O)C2=CCCCC2)Cc2cnn(CC3CC3)c21` (stereo unspecified), the cytotoxicity at 70.5 h is -2.03%.

`CS(=O)(=O)NC[C@]12COC[C@H]1CN(C(=O)c1ccccc1)C2`: the cytotoxicity at 70.5 h was -3.75%.

In the case of `CS(=O)(=O)NC[C@]12COC[C@H]1CN(C(=O)Cc1ccccc1F)C2`, the cytotoxicity at 70.5 h is -1.03%.

`Cc1csc([C@@H]2C[C@@H]3CCN(C(=O)c4cc(C)on4)C[C@H]3O2)n1`: the cytotoxicity at 70.5 h was -1.08%.

With `CC(C)NC(=O)N1CCN(S(=O)(=O)C2CC2)CC2(CNC(=O)C2)C1` (stereo unspecified), the cytotoxicity at 70.5 h stood at 1.9%.

Consider `Cn1nnc2c1C(COCC1CC1)CN(C(=O)Cc1ccsc1)C2` (stereo unspecified), for which the cytotoxicity at 70.5 h is -0.74%.

As to `COCC1CN(Cc2sccc2C)Cc2nnn(CC3CC3)c21` (stereo unspecified), the cytotoxicity at 70.5 h is -4.06%.

As to `CN(C)C(=O)CO[C@@H]1CN(Cc2ccccc2F)[C@@H]2CCCO[C@@H]21`, the cytotoxicity at 70.5 h was -6.14%.

In the case of `CC(=O)N1CCCC2(CN(Cc3ccc(F)cc3)CCO2)C1` (stereo unspecified), the cytotoxicity at 70.5 h is 2.34%.

On to `Cc1ccc2c(c1)CCC21CCN(C(=O)CN(C)C)CC1`, for which the cytotoxicity at 70.5 h was -1.12%.

As for `Cc1ccc(CNCC2Cn3nnc(-c4cccc(F)c4)c3CO2)o1` (stereo unspecified), the cytotoxicity at 70.5 h was -2%.

Regarding `c1csc(CN2CCO[C@H]3[C@H](OCC4CCCC4)CC[C@@H]32)n1`, the cytotoxicity at 70.5 h is -1.77%.

In the case of `COCCN1CCC2(CCN(Cc3cccs3)CC2)C1=O`, the cytotoxicity at 70.5 h was determined as 16.2%.

For `O=C([C@@H]1COC[C@H]2CN(C3CCCC3)C[C@H]21)N1CCCCO1`, the cytotoxicity at 70.5 h worked out at 11.7%.

Regarding `CC(=O)N1[C@H](Cn2cncn2)C[C@@H]2CN(CC3CC3)CC[C@@H]21`, the cytotoxicity at 70.5 h is -1.99%.

For `CCN1CCC2(CCN(Cc3nccs3)CC2)C1=O`, the cytotoxicity at 70.5 h was found to be 0.565%.

For the compound `O=C([C@@H]1COC[C@H]2CN(C3CCCC3)C[C@H]21)N1CCCO1`, the cytotoxicity at 70.5 h was -1.63%.

With `CC(=O)N1CCC2(CCN(Cc3cccc(F)c3)CC2)CC1`, the cytotoxicity at 70.5 h was -2.12%.

`CCC(=O)N1CCC2(CCN(Cc3cccc(F)c3)CC2)CC1`: the cytotoxicity at 70.5 h was -1.29%.

On to `COCCNC(=O)[C@H]1CC[C@@H]2[C@@H](CCN2c2ncc(F)cn2)O1`, for which the cytotoxicity at 70.5 h was -1.33%.

Take `O=C(c1ccco1)N1CCCC2(CN(Cc3ccc(F)cc3)CCO2)C1` (stereo unspecified): the cytotoxicity at 70.5 h was -1.46%.

For the compound `Cc1ccc(CN2CC[C@H]3OCC[C@@H](C(=O)NCC4CC4)[C@@H]3C2)s1`, the cytotoxicity at 70.5 h was -6.5%.

On to `CCS(=O)(=O)N1CCOC2(CCCN(c3ccccn3)C2)C1` (stereo unspecified), for which the cytotoxicity at 70.5 h was -2.6%.

As to `CNC(=O)c1cc2c(nc1NCC1CC1)CCN(c1ccncn1)CC2`, the cytotoxicity at 70.5 h was -24.6%.

`CCS(=O)(=O)N1C[C@H]2CCC[C@@]2(COc2ccccn2)C1`: the cytotoxicity at 70.5 h is -21.9%.

For the compound `O=C(c1cnccn1)N1CCOCC2(CCN(C3CCOCC3)C2)C1` (stereo unspecified), the cytotoxicity at 70.5 h was -15.5%.

In the case of `COc1ccccc1CN1CC[C@H]2C[C@@H](C(=O)N3CCCC3)O[C@H]2C1`, the cytotoxicity at 70.5 h is -7.49%.

Turning to `O=C(c1ccccn1)N1CCn2cnc(COCC3CC3)c2C1`, the cytotoxicity at 70.5 h is -1.29%.

Regarding `O=C([C@H]1CCCO1)N1CC[C@H](O)[C@@H]1Cc1ccncc1`, the cytotoxicity at 70.5 h turned out to be 1.55%.

With `Cc1nc(CN2CC3(CCN(c4ncc(F)cn4)C3)CC2=O)cs1` (stereo unspecified), the cytotoxicity at 70.5 h was -0.115%.

In the case of `Cc1ccc(N2C[C@@H]3CCCO[C@@H]3[C@H](N3CCCC3)C2)nn1`, the cytotoxicity at 70.5 h is 27%.

Consider `COCC1CN(Cc2cccnc2)Cc2nnn(CC3CC3)c21` (stereo unspecified), for which the cytotoxicity at 70.5 h was 19.4%.

`O=C(Cc1cccnc1)N1CCCC2(CCN(C3CCOCC3)C2)C1` (stereo unspecified): the cytotoxicity at 70.5 h was found to be 9.18%.

Turning to `c1ccc(CN2CCC3(CC2)CN(c2ccccn2)CCO3)nc1`, the cytotoxicity at 70.5 h was -5.77%.

`CCS(=O)(=O)N1CCC2(C1)C(=O)N(C)CCN2Cc1ccncc1` (stereo unspecified): the cytotoxicity at 70.5 h is -7.36%.

As for `O=C(Cc1cccnc1)N1CCC2(CCN(CC3CCCCC3)C2)CC1`, the cytotoxicity at 70.5 h is 7.82%.

For the compound `c1cncc(COCc2nnc3n2CCN(Cc2cccs2)C3)c1`, the cytotoxicity at 70.5 h was 12.3%.

For `Cc1nc(CN2CCCC3(CCN(c4cccnc4)C3=O)C2)cs1` (stereo unspecified), the cytotoxicity at 70.5 h was 14.2%.

As to `O=C1N(c2cccnc2)CCC12CCCN(Cc1ccoc1)C2` (stereo unspecified), the cytotoxicity at 70.5 h was -4.21%.

In the case of `Cn1ccnc1CN1CCC2(CC1)CCN(Cc1ccoc1)C2`, the cytotoxicity at 70.5 h is -2.31%.

As to `CC(C)CN1CCn2c(COCc3cccnc3)nnc2C1`, the cytotoxicity at 70.5 h is -4.01%.

For the compound `c1csc(CN2CC3(CCN(Cc4ccsc4)C3)C2)n1`, the cytotoxicity at 70.5 h was determined as 8.65%.

Turning to `CN(C)[C@@H]1CCN(c2ncccn2)[C@H]1Cc1cccnc1`, the cytotoxicity at 70.5 h was -3.76%.

On to `CN(C)[C@@H]1CCN(c2ncc(F)cn2)[C@H]1Cc1ccncc1`, for which the cytotoxicity at 70.5 h was -5.64%.

For `Cc1cccc(CO[C@@H]2CC[C@H]3[C@H]2OCCN3Cc2cc(C)on2)n1`, the cytotoxicity at 70.5 h is -0.405%.

`O=C1CC[C@H]2[C@H](CCN2c2ncc(F)cn2)N1c1cccnc1`: the cytotoxicity at 70.5 h is -6.96%.

As for `Cc1ccc(C(=O)N2C[C@H]3CCCC(OCc4cccnc4)[C@H]3C2)cn1` (stereo partly specified), the cytotoxicity at 70.5 h is -1.36%.

On to `CO[C@@H]1CCN(Cc2cnn(C)c2)[C@@H]2CN(Cc3ccco3)C[C@@H]21`, for which the cytotoxicity at 70.5 h is -13.3%.

Take `c1ccc(CO[C@H]2CO[C@@]3(CCN(Cc4ccoc4)C3)C2)nc1`: the cytotoxicity at 70.5 h is -18.7%.

`COc1ccc(CN2CCn3cc(CN4CCCCC4)nc3C2)cc1`: the cytotoxicity at 70.5 h was 29.5%.

As for `CN1CCN(Cc2cccnc2)C2(CCN(C3CCOCC3)C2)C1=O` (stereo unspecified), the cytotoxicity at 70.5 h was -5.52%.

With `CN1CCN(Cc2cccnc2)C2(CCN(Cc3ccccn3)C2)C1=O` (stereo unspecified), the cytotoxicity at 70.5 h was -7.04%.

`CCN(CC)CCN1CCO[C@H]2[C@@H](OCc3ccncc3)CC[C@@H]21`: the cytotoxicity at 70.5 h was -1.93%.
